Source: PubChem BioAssay AID652053 (Broad Institute, 2013)

Test system: Huh7 psiCHECK-miR122 Renilla luciferase reporter, 48 h
Experiment: suppression of miR-122 activity, Renilla luciferase sensor – cell-based, Huh7 psiCHECK-miR122, cherry-pick, dose response (AID 652053)

Row | SMILES | AC40 [µM]
1 | COc1cccc(CN(C(=O)Cc2c[nH]c3ccccc23)C(C(=O)NC2CCCCC2)c2cccs2)c1 (configuration not stated) | 6.05
2 | CCc1ccc(S(=O)(=O)Nc2ccc(Cl)cn2)cc1 | 8.84
3 | CCN(CC)c1ccc(NC(=O)COc2ccccc2C#N)cc1S(=O)(=O)Nc1ccccc1OC | 0.325
4 | COc1ccc(S(=O)(=O)Nc2cc3c4c(c2)CCC(=O)N4CCC3)cc1C | 6.67
5 | CC(C)Oc1ccc(C(=O)Nc2ccc(Cl)c(S(=O)(=O)Nc3ccc(Cl)cc3)c2)cc1 | 0.559
6 | O=C(NCCCn1ccnc1)c1cccc(S(=O)(=O)Nc2ccc(F)cc2)c1 | 3.77
7 | COc1ccc(C)cc1S(=O)(=O)NC1CCCCC1C (configuration not stated) | 3.25
8 | C[C@H](CO)N1C[C@H](C)[C@@H](CN(C)CC2CC2)Oc2c(NC(=O)C3CC3)cccc2C1=O | 22.2
9 | Cc1ccc(S(=O)(=O)NCCN2CCOCC2)c(C)c1C | 6.26
10 | COc1ccc(NS(=O)(=O)c2cc(NC(=O)CCc3ccc(OC)c(OC)c3)ccc2N2CCOCC2)cc1 | 1.77
11 | O=S(=O)(/N=C(/Nc1ccc(Cl)c(S(=O)(=O)N2CCOCC2)c1)c1ccc(F)cc1)c1ccccc1 | 0.864
12 | COc1ccccc1NS(=O)(=O)c1cc(NC(=O)c2cc(=O)[nH]c3ccccc23)ccc1N1CCOCC1 | 1.01
13 | CCNS(=O)(=O)c1cc(Br)ccc1OC | 3.4
14 | Cc1ccc(C2CC(c3cccs3)=NN2S(=O)(=O)c2ccc(C)cc2)cc1 (configuration not stated) | 8.19
15 | Cc1cc(C)cc(NS(=O)(=O)c2cc(Br)cnc2N)c1 | 0.656
16 | CCNS(=O)(=O)c1ccc2c3c(cccc13)C(=O)N2 | 11.6
17 | CCOc1cc(C)c(S(=O)(=O)Nc2ccc(F)cc2)cc1C | 0.908
18 | CC(C)C(=O)Nc1cc(S(=O)(=O)Nc2cccc(Cl)c2)ccc1Cl | 1.52
19 | COc1ccc(C2CCCCCN2Cc2nc3ccccc3c(=O)n2CC(N)=O)cc1 (configuration not stated) | 9.73
20 | COc1ccc(NS(=O)(=O)c2ccc(NC(=S)NC(=O)CC(C)C)cc2)cc1 | 0.502
21 | COc1c(S(=O)(=O)NCCCn2ccnc2)ccc(Cl)c1Cl | 21.3
22 | CCCNC(=O)C[C@H]1CC[C@H]2[C@H](COc3ccc(NC(=O)c4ccc5c(c4)OCO5)cc3C(=O)N2C)O1 | 14.2
23 | CCOc1ccc(NS(=O)(=O)c2ccc(NC(=S)NC(=O)CC(C)C)cc2)cc1 | 1.68
24 | Cc1ccc(NC(=O)C(=O)c2c(-c3ccccc3)cc3ccccn23)cc1S(=O)(=O)N1CCOCC1 | 27.9
25 | COc1ccc(OC)c(S(=O)(=O)Nc2cc3c4c(c2)CCC(=O)N4CCC3)c1 | 0.84
26 | COc1ccc(Cl)cc1S(=O)(=O)NCc1cccnc1 | 14.5

Row | SMILES | AC40 [µM]
27 | Cc1cc(C)c(C)c(S(=O)(=O)Nc2ccc3cn[nH]c3c2)c1C | 0.694
28 | COc1ccc(C(=O)N2C[C@@H]3[C@H](c4ccccc42)[C@H](CO)N3Cc2ccc3c(c2)OCO3)cc1 | 5.57
29 | Cc1ccc(C)c(S(=O)(=O)Nc2ccc(C(=O)N3CCCCC3)cc2)c1 | 3.58
30 | COc1cc(S(=O)(=O)NC2CCCCC2)ccc1Cl | 2.18
31 | COc1ccc(C(=O)Nc2ccc(S(=O)(=O)NCc3ccco3)cc2)cc1OC | 4.75
32 | CCCCNS(=O)(=O)c1ccc2nc(-c3cccnc3)cc(C(=O)NC(C)CC)c2c1 (configuration not stated) | 0.387
33 | C[C@H](CO)N1C[C@H](C)[C@@H](CN(C)Cc2ccc(Oc3ccccc3)cc2)Oc2c(NC(=O)C3CCOCC3)cccc2C1=O | 1.31
34 | CCN(CC)S(=O)(=O)c1ccc(NS(=O)(=O)c2ccc(C)c(C)c2)cc1 | 11.3
35 | COc1ccc(NS(=O)(=O)c2cccc(Cl)c2)cc1S(=O)(=O)N1CCCCC1 | 4.35
36 | Cc1ccccc1-c1cnc(C(O)c2ccc(F)c(F)c2)[nH]1 (configuration not stated) | 6.78
37 | CCN(CC)S(=O)(=O)c1cc(C(=O)N(C)CC(=O)Nc2ccc(Cl)cc2)ccc1Cl | 13.9
38 | O=S(=O)(NC1CCCCC1)c1ccc(-c2csnn2)s1 | 3.8
39 | COc1ccc(Br)cc1CNC(=O)Nc1cccs1 | 15.5
40 | Cc1ccc(C(C)C)cc1S(=O)(=O)Nc1cccnc1 | 2.62
41 | CCCC(C)NS(=O)(=O)c1ccc(OC)c(C)c1 (configuration not stated) | 10
42 | CCN(CC)c1ccc(NC(=O)c2ccccn2)cc1S(=O)(=O)Nc1ccccc1OC | 4.42
43 | C[C@@H]1CN([C@H](C)CO)C(=O)c2cc(NC(=O)Cc3ccccc3)ccc2O[C@@H]1CN(C)S(=O)(=O)c1ccc(Cl)cc1 | 1.31
44 | COc1cccc(CC(=O)Nc2ccc(N3CCOCC3)c(S(=O)(=O)Nc3ccccc3OC)c2)c1 | 1.48
45 | COc1ccc(S(=O)(=O)N(C)C[C@H]2Oc3ccc(NC(=O)Cc4ccccc4)cc3C(=O)N([C@H](C)CO)C[C@H]2C)cc1 | 2.75
46 | O=S(=O)(NC1CC2CCC1C2)c1ccc2c(c1)OCCO2 (configuration not stated) | 3.87
47 | O=S(Cc1ccc(Cl)cc1)CC(O)(c1ccccc1)c1ccccc1 (configuration not stated) | 18.1
48 | COc1ccccc1NS(=O)(=O)c1cccc(NC(=O)c2[nH]c(C)c(C(C)=O)c2C)c1 | 7.17
49 | CC(=O)c1c(C)[nH]c(C(=O)Nc2ccc(C)c(S(=O)(=O)Nc3ccc(C)cc3C)c2)c1C | 8.45
50 | CC(=O)c1cccc(NS(=O)(=O)c2cc(-c3cnc(C4CC4)o3)ccc2C)c1 | 6.63
51 | CC1CCCC(NS(=O)(=O)c2ccc3c(c2)OCCO3)C1C (configuration not stated) | 3.1
52 | CCOc1cc(C)c(S(=O)(=O)Nc2ccc3cn[nH]c3c2)cc1C | 1.24

Row | SMILES | AC40 [µM]
53 | COc1ccccc1NS(=O)(=O)c1cc(Cl)ccc1OC | 15.9
54 | Cc1cccc(NS(=O)(=O)c2ccc(C3CCCCC3)cc2)c1 | 13.2
55 | c1ccc(CNc2nnnn2-c2ccccc2)cc1 | 17.1
56 | CCc1c(C(=O)NC2CCCc3ccccc32)[nH]c(C)c1C(C)=O (configuration not stated) | 9
57 | Cc1ccc(C2c3c(-c4ccccc4O)n[nH]c3C(=O)N2Cc2ccncc2)cc1 (configuration not stated) | 8.08
58 | COc1ccc(OC)c(C(c2nnnn2C2CCCC2)N2CCN(c3ccccc3F)CC2)c1 (configuration not stated) | 12.3
59 | CCOC(=O)c1c(C)[nH]c(C)c1S(=O)(=O)NCCc1ccc(SC)cc1 | 0.686
60 | COc1cc(NS(=O)(=O)c2ccc(OC)c(C)c2C)c(OC)cc1Cl | 3.5
61 | Cc1ccccc1C(=O)Oc1ccc(Br)cc1C(=S)N1CCCC1 | 13.3
62 | Cc1ccc(C(=O)NCCSc2ccccc2)cc1S(=O)(=O)Nc1ccccc1 | 4.09
63 | CCc1c(C(=O)Nc2cc(C)cc(C)c2)[nH]c(C)c1C(C)=O | 14.8
64 | Cc1ccc(NS(=O)(=O)c2cc3c4c(c2)CC(=O)N4CCC3)cc1C | 2.61
65 | O=C(c1ccccc1F)N1C[C@@H]2[C@H](c3ccccc31)[C@H](CO)N2C(=O)c1ccc(F)cc1 | 21
66 | O=C(Cc1ccccc1)N1C[C@@H]2[C@H](c3ccccc31)[C@@H](CO)N2C(=O)Nc1ccc(F)cc1 | 2.61
67 | COCC#Cc1ccc2c(c1)O[C@H](CN(C)Cc1ccc3c(c1)OCO3)[C@@H](C)CN([C@@H](C)CO)S2(=O)=O | 13.8
68 | CCc1c(C(=O)NC2CCCCC2)[nH]c(C)c1C(C)=O | 4.84
69 | Cc1ccc(C(=O)Nc2ccc(Cl)cc2C(=O)c2ccccc2)cc1 | 18.6
70 | C[C@@H]1CN([C@H](C)CO)C(=O)c2cc(N(C)C)ccc2O[C@H]1CN(C)Cc1ccc(C(=O)Nc2ccccc2N)cc1 | 1.96
71 | CCOc1ccc(NS(=O)(=O)c2cc(C)c(C)cc2C)cc1 | 2.04
72 | CCOc1ccc(C)cc1S(=O)(=O)NC1CCCCC1 | 0.575
73 | Cc1cc(Cl)c(S(=O)(=O)Nc2ccc3c(c2)OCO3)cc1OCC(=O)NC1CCCCC1 | 5.8
74 | OCC1OC(n2cnc3c(NCc4ccccc4O)ncnc32)C(O)C1O (configuration not stated) | 3.86
75 | O=C1NC(=O)C(CCc2ccncc2)(Cc2cccc(Cl)c2Cl)C(=O)N1c1ccc(Br)cc1 (configuration not stated) | 2.98
76 | Cc1cc(C)cc(C(O)c2ncc(-c3ccccc3F)[nH]2)c1 (configuration not stated) | 2.5
77 | C[C@H](CO)N1C[C@H](C)[C@@H](CN(C)Cc2ccccc2)Oc2c(NS(=O)(=O)c3ccccc3)cccc2C1=O | 3.64
78 | CC1CCCCN1C(=O)c1cc2nc(-c3ccccc3)cc(-c3ccccc3)n2n1 (configuration not stated) | 2.46

Row | SMILES | AC40 [µM]
79 | Cc1ccccc1CC1(C)C(=O)Nc2ccc(S(=O)(=O)NC3CCCCC3)cc21 (configuration not stated) | 2.69
80 | CCc1ccc(-c2cc(C)no2)cc1S(=O)(=O)NCc1ccco1 | 1.61
81 | O=C(C[C@@H]1C[C@H]2c3cc(NS(=O)(=O)c4ccc(F)cc4)ccc3O[C@H]2[C@H](CO)O1)NCc1ccc(-c2ccccc2)cc1 | 5.24
82 | COc1ccc(OC)c(-c2csc(NC(=O)Cc3ccccc3F)n2)c1 | 8.49
83 | O=C(Nc1ccc(S(=O)(=O)Nc2nccs2)cc1)c1cc(-c2ccccc2Cl)nc2ccccc12 | 2.48
84 | CCOc1ccccc1N1CCN(C(=O)c2cccc(-c3ccc(O)cc3)c2)CC1 | 0.659
85 | O=S(=O)(NCc1ccco1)c1ccc2ccccc2c1 | 2.62
86 | C[C@H](CO)N1C[C@H](C)[C@H](CN(C)Cc2ccc(C(=O)Nc3ccccc3N)cc2)Oc2ccc(NC(=O)Nc3ccccc3)cc2CC1=O | 5.91
87 | Cc1ccc(CN2CCSc3ccc(C(=O)NCc4ccco4)cc32)cc1 | 11.3
88 | CC(=O)c1ccc(NS(=O)(=O)c2ccc3c(c2)N(C)CCO3)cc1 | 3.6
89 | O=S(=O)(c1ccccc1)N1C[C@H]2[C@@H](c3ccccc31)[C@@H](CO)N2Cc1ccc2c(c1)OCO2 | 8.56
90 | C[C@@H]1CN([C@@H](C)CO)C(=O)c2cccc(NC(=O)Nc3ccccc3)c2O[C@H]1CN(C)Cc1ccc(C(F)(F)F)cc1 | 2.49
91 | COc1ccc(C)cc1S(=O)(=O)Nc1cccc(SC)c1 | 0.582
92 | COc1ccc(NS(=O)(=O)c2cc(NC(=O)c3ccc(=O)[nH]n3)ccc2C)cc1 | 5.01
93 | CC1=CC(C)(C)N(S(=O)(=O)c2ccc(C)cc2)c2cc(C)ccc21 | 3.72
94 | CC(=O)Nc1ccc(C(=O)Nc2ccc(S(=O)(=O)NCC3CCCO3)cc2)cc1 (configuration not stated) | 2.69
95 | COc1ccc(C)cc1S(=O)(=O)Nc1ccc(F)cc1 | 1.04
96 | COc1ccc(NC(=O)CCC(=O)c2cccs2)cc1S(=O)(=O)Nc1ccc(Cl)cc1 | 0.884
97 | Cc1ccc(C(=O)C2Oc3ccccc3C3CC(c4ccc(C)cc4)=NN23)cc1 (configuration not stated) | 1.17
98 | O=S(=O)(Nc1ccccc1)c1ccc(-c2cnc(C3CC3)o2)cc1 | 8.92
99 | O=S1(=O)CCC(NS(=O)(=O)c2ccc3ccccc3c2)C1 (configuration not stated) | 13.4
100 | CCCNC(=O)C[C@H]1CC[C@H]2[C@H](COc3ccc(NC(=O)Cc4cccs4)cc3C(=O)N2C)O1 | 2.21
101 | Cc1ccc(S(=O)(=O)Nc2c(C)ccc3nsnc23)cc1 | 17.6
102 | OC(c1cc(Cl)cc(Cl)c1)c1ncc(-c2ccccc2F)[nH]1 (configuration not stated) | 3.84
